Assay results published in patent publication US8420697B2, “Treatment of acute exacerbation of asthma and reduction of likelihood of hospitalization of patients suffering therefrom” (MediciNova, Inc., priority 2009, dated 2013).
Counter-ions that a name gives are not always drawn. Marks after values point to notes of the source that are not given here.

Tests used:
[1] = target: T1, β2 (GP carbachol-tx trachea) (Cavia porcellus, UniProt Q8K4Z4); experiment: Ex vivo organ bioassay (Cerep 13271), GP carbachol-treated trachea
T1 construct: tissue Cerep; host or cells: guinea pig trachea, carbachol-contracted
From the text: (§1) The Active Agent (MN-221 a/k/a bedoradrine or its pharmaceutically acceptable salts) administered intravenously allows it to distribute and partition into the congested lung tissue of AEA patients and allow bronchodilation without undue cardiovascular side effects. Table 1, below, provides an example of the adrenoceptor action profile for MN-221 determined experimentally: [table]

ragweed sensitized dogs = experiment: Reversal of ragweed-induced bronchoconstriction in sensitized dogs; type: in vivo; settings: i.v. 0.04 to 0.4 mg/kg; between 0.75 and 6.7 min after dosing; p<0.001 up to 4.5 min, p<0.01 up to 6.7 min
β1 (GP Rt atrium) = experiment: Ex vivo organ bioassay (Cerep 13271), GP right atrium
From the text: as §1

telemetered dogs = experiment: Cardiovascular safety in telemetered dogs, i.v. MN-221 with nebulized albuterol; type: in vivo; settings: for heart rate, agent alone: albuterol inhaled 5 or 10 ug/kg, MN-221 i.v. over 15 min 0.3, 3 or 30 ug/kg; for MAP or QTc, agent alone: either agent at any dose
Experimental: In a separate study with telemetered dogs at the Lovelace Respiratory Research Institute, the effect of i.v. MN-221 administration in addition to nebulized albuterol was performed to assess cardiovascular changes and safety of the combination therapy. Albuterol was administered by inhalation at 5 or 10 ug/kg and MN-221 was intravenously administered over 15 min at 0.3, 3, or 30 ug/kg. […] See, FIG. 4.

Human β1 [2] = target: T2, Human β1 (Homo sapiens, UniProt P08588); experiment: Cell bioassay, cAMP accumulation, human β1 in HEK; type: cell-based; settings: read-out: cell bioassay (EC50 cAMP accum.) β1
T2 construct: host or cells: HEK
From the text: as §1

Hu β2 [3] = target: T3, Hu β2 (Homo sapiens, UniProt P07550); experiment: Competitive binding (Cerep 14320), human β2
T3 construct: host or cells: CHO
From the text: as §1

Hu β2 [4] = target: T3, Hu β2; experiment: Cell bioassay, cAMP accumulation, human β2 in CHO; type: cell-based
From the text: as §1

patients with severe AEA = experiment: Clinical study of MN-221 plus SOC in emergency department patients with AEA; type: in vivo, humans
Experimental: MN-221 was tested at escalating doses of 240 μg to 1,080 μg in patients with AEA treated in emergency departments (EDs). The study included 29 (13 treated with SOC only and 16 treated with MN-221 in combination with SOC) patients with severe AEA. All patients were administered SOC treatment as follows: supplemental oxygen given to maintain oxygen saturation measured by pulse oximetry of ≧90%; two doses of inhaled beta2-agonist (in this study, albuterol 5 mg) via nebulizer given approximately every 20 minutes; simultaneously with two doses of an inhaled anti-cholinergic agent (in this study, ipratropium 0.5 mg) via nebulizer given approximately every 20 minutes; one dose of corticosteroid given orally (in this study, prednisone 60 mg) or intravenously (in this study, methylprednisolone 125 mg), and intravenous magnesium sulfate (2 gm, diluted with 50-100 mL normal saline) and given over 10 minutes to patients with an FEV1≦25% of predicted upon ED presentation treatment.
MN-221 was administered at the following doses: 16 μg/min for 15 minutes (total of 240 μg); 30 μg/min for 15 minutes (total of 450 μg); 16 μg/min for 15 minutes; 8 μg/min for 105 minutes (total of 1,080 μg). A lyophilized unit dose for of MN-221, containing 2 mg MN-221 and lactose in a 10 mL vial was employed in the administration. Vials containing 2 mg (2000 μg) of MN-221 and vials containing placebo were reconstituted as follows. 4 mL of 5% dextrose in water was added to each 10 mL vial containing MN-221 to make 500 μg/mL stock solution (2000 μg/4 mL=500 μg/mL). 2 mL (1,000 μg) of stock solution was added to 123 mL 5% dextrose in water to make the total volume of 125 mL (123 mL+2 mL=125 mL). Final MN-221 solution equal to 1,000 μg/125 mL or 8 μg/mL was prepared this way.
Patients were administered SOC treatment (inhaled albuterol, 2.5 mg via nebulizer up to every 20 minutes) and ipratropium (0.5 mg via nebulizer up to every 20 minutes) in addition to treatment with MN-221 or placebo.

Human β1 [5] = target: T2, Human β1; experiment: Competitive binding (Cerep 14320), human β1; settings: HEK (Human β1)
From the text: as §1

T3 sequence (P07550 whole entry): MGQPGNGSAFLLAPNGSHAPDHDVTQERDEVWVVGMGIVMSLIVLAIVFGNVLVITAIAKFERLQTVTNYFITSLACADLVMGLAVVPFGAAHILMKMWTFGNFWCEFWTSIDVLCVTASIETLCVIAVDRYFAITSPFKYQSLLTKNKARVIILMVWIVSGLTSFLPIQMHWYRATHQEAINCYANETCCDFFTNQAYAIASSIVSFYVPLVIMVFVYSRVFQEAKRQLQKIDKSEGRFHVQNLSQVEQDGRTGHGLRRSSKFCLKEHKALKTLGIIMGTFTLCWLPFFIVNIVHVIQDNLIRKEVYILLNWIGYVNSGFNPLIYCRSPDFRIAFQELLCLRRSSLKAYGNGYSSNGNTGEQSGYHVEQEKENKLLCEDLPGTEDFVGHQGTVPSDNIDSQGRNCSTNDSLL
T2 sequence (P08588 whole entry): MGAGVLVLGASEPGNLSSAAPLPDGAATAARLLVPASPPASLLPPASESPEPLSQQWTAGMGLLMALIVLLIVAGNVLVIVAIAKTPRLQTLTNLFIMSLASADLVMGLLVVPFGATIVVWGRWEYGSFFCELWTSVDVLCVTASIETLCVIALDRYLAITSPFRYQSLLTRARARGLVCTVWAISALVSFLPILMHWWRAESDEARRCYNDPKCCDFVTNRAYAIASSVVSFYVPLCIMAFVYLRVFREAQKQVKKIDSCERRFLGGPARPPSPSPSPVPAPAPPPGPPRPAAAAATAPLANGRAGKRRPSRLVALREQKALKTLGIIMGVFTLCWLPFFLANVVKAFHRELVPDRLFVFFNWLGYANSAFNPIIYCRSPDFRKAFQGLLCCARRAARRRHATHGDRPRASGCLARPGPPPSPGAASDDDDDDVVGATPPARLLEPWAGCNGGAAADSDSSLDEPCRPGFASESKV
T1 sequence (Q8K4Z4 whole entry): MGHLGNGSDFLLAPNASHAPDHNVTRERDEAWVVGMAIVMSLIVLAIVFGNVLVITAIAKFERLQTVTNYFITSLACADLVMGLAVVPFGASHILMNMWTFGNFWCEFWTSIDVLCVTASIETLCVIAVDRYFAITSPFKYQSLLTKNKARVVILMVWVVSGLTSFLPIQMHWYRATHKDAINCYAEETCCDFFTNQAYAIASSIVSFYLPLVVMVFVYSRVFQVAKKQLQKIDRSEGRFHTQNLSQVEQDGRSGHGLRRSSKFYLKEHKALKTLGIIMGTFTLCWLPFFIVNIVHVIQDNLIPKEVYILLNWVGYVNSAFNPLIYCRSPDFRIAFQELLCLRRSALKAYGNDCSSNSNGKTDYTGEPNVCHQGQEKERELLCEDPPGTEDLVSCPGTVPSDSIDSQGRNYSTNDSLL

Row | EC50 ([1]; GP carbachol-tx trachea (% salbut)) [nM] | ex vivo Organ bioassay β1/β2 ([1]; ratio of EC39 (atrium) to EC50 (trachea)) | EC50 (Human β1 [2]) [nM] | IC50 (Hu β2 [3]; CHO (Hu β2)) [nM] | Competitive Binding β1/β2 (Hu β2 [3]; ratio of IC50 β1 to β2) | EC50 (Hu β2 [4]; CHO (Hu β2), read-out: cell bioassay (EC50 cAMP accum.) β2) [nM] | cell bioassay cAMP accum. β1/β2 (Hu β2 [4]; ratio of EC50 β1 to β2) | IC50 (Human β1 [5]) [nM] | SMILES | reversal of ragweed-induced bronchoconstriction (ragweed sensitized dogs) | agonist character (β1 (GP Rt atrium); GP Rt atrium) | ex vivo Organ bioassay est EC39 β1 (β1 (GP Rt atrium); GP Rt atrium (% isoprot), EC39 = 39% of isoproterenol maximum response) | Emax (β1 (GP Rt atrium); GP Rt atrium, % of isoproterenol maximum response) | MAP, QTc with combination therapy (telemetered dogs; MN-221 plus albuterol) | heart rate, agent alone (telemetered dogs) | heart rate, MN-221 added on top of albuterol (telemetered dogs; clinically-relevant doses of both) | MAP or QTc, agent alone (telemetered dogs) | safety (ECG, laboratory, adverse experience data) (patients with severe AEA; MN-221 added to standardized care) | heart rate change in patients (patients with severe AEA; MN-221 combined with SOC, FIG. 2) | Improvement in FEV1 values versus SOC (patients with severe AEA; MN-221 in addition to SOC treatment) | hospitalization rate (patients with severe AEA; MN-221 with SOC, 4 of 16 patients, SOC only 54% (7 of 13)) [%]
1 | 28 | 36 | > 50000 | 270 | 42 | 13 | >3000 | 11800 | CN(C)C(=O)COc1ccc2c(c1)C[C@@H](NC[C@H](O)c1ccc(O)c(CCO)c1)CC2 [MN-221, acetamide, N,N-dimethyl-2-[[(7S)-5,6,7,8-tetrahydro-7-[[(2R)-2-hydroxy-2-[4-hydroxy-3-(2-hydroxyethyl)phenyl]ethyl]amino]-2-naphthalenyl]oxy], sulfate] | statistically significant, and near maximal reversal of bronchoconstriction | a partial agonist. | ~1* μM | Emax = 39% | not adversely changed | increased heart rate to a modest level | no additional increase in heart rate | No adverse changes | No safety concerns | absence of significant heart rate increase | generally appeared to be greater | 25
2 |  |  |  |  |  |  |  |  | CC(C)(C)NCC(O)c1ccc(O)c(CO)c1 (stereo not shown) [albuterol, reference compound] |  |  |  |  |  | increased heart rate to a modest level |  | No adverse changes |  |  |  | 
